Measured values taken from patent publication US9040563B2, “Dual inhibitors of farnesyltransferase and geranylgeranyltransferase I” (H. Lee Moffitt Cancer Center and Research Institute, Inc., priority 2010, dated 2015).
Several values for one entry are separate records, joined by “and”; a condition that tells them apart may be missing. Equal entries are not always repeated. One block for each compound: values may come before it.

Legend:
A549 = assay: MTT proliferation/viability assay; assay type: cell-based, human; settings: A549, lung
Procedure: (§1) To determine if FGTI-2734 is more efficacious than FT or GGT-1 inhibitors, 10 human cancer pancreatic cell lines, 2 human breast cancer cell lines, 2 human lung cancer cell lines and one human prostate cancer cell line were treated with these inhibitors and determined their effects on the proliferation of these cells by MTT assay.

ASPC-1 = assay: MTT proliferation/viability assay; assay type: cell-based, human
Procedure: as §1

BxPC3 = assay: MTT proliferation/viability assay; assay type: cell-based, human
Procedure: as §1

Capan-2 = assay: MTT proliferation/viability assay; assay type: cell-based, human
Procedure: as §1

HPDE-C7-Kras = assay: MTT proliferation/viability assay; assay type: cell-based, human; settings: pancreas
Procedure: as §1

HPDE-C7 = assay: MTT proliferation/viability assay; assay type: cell-based, human; settings: HPDE-C7, pancreas
Procedure: as §1

HPNE-K-ras = assay: MTT proliferation/viability assay; assay type: cell-based, human; settings: pancreas
Procedure: as §1

HPNE = assay: MTT proliferation/viability assay; assay type: cell-based, human; settings: pancreas
Procedure: as §1

MCF-7 = assay: MTT proliferation/viability assay; assay type: cell-based, human
Procedure: as §1

MiaPaca = assay: MTT proliferation/viability assay; assay type: cell-based, human
Procedure: as §1

Panc-1 = assay: MTT proliferation/viability assay; assay type: cell-based, human; settings: Panc-1, pancreas
Procedure: as §1

SW1990 = assay: MTT proliferation/viability assay; assay type: cell-based, human
Procedure: as §1

DU-145 = assay: MTT proliferation/viability assay; assay type: cell-based, human
Procedure: as §1

NCI-H460 = assay: MTT proliferation/viability assay; assay type: cell-based; settings: Homo sapiens, NCI-H460, lung
Procedure: as §1

[1] = tested on: Rap-1A geranylgeranylation; assay: Western blot of Rap-1A geranylgeranylation/processing (antibody to un-geranylgeranylated Rap-1A) in treated cells; assay type: cell-based; settings: MiaPaca, MDA-MB-468 and MDA-MB-231 human cancer cells; FIG. 13
Procedure: The ability of FGTI-2734 to inhibit HDJ-2 farnesylation and Rap-1A geranylgeranylation in human cancer cells was determined next. To this end, the MiaPaca pancreatic cancer cell line and 2 breast cancer cell lines (MDA-MB-468 and MDA-MB-231) were treated with various concentration of the dual inhibitor FGTI-2734, the GGT-1 inhibitor GGTI-2418 or the FT inhibitor FTI-2153 and processed for Western blotting.
Testing has shown that the dual farnesyltransferase and geranygeranyltransferase-I inhibitors are effective on pancreatic tumors (90% of all cases), colonic tumors (30% of all cases), lung tumors (30% of all cases), and breast tumors (10% of all cases). NIH-3T3 cells that overexpress oncogenic mutant K-Ras, seen in FIG. 14, and MDA-MB-231 breast cancer cells with a naturally occurring K-Ras mutation, seen in FIG. 15, were treated with indicated concentrations of FGTI-2734, GGTI-2417 or FTI-2153. FGTI-2734 but not FTI-2153 or GGTI-2417 inhibited K-Ras prenylation. As expected, GGTI-2417 inhibited the processing of Rap1 but not HDJ-2 whereas FTI-2153 inhibited the processing of HDJ-2 but not Rap1.
Mammalian target of rapamycin (mTOR) is a serine/threonine phosphatidylinositol 3-kinase-related kinase responsible for cell growth, proliferation, cell survival, protein synthesis, and transcription. Alteration of the mTOR pathway, either through activation of oncogenes or inactivation of tumor suppressors, disrupts a signaling equilibrium and causes malignant transformation. Studies have shown that phosphorylated S6 (pS6) is related to mTOR pathway alterations, and is useful in determining PI3K-based cancer therapies (Aziz, et al. Phosphatidylinositol-3-Kinase as a Therapeutic Target in Melanoma. Clin Cancer Res. 2009, 15; 3029-3036). Two breast adenocarcinoma and a pancreatic carcinoma cell line were treated with indicated concentrations of FGTI-2734, GGTI-2417 or FTI-2153. Protein extracts were run on a Western Blot using antibody against pS6 (ser240/244) (Cell Signaling Technology, Inc., Danvers, Mass.). […]

IC50 (A549): > 100 µM
IC50 (ASPC-1; ASPC-1, pancreas): > 100 µM
IC50 (BxPC3; BxPC3, pancreas): > 100 µM
IC50 (MCF-7; MCF-7, breast): > 100 µM and 50 µM
IC50 (MiaPaca; pancreas): 1.2 µM
IC50 (Panc-1): > 100 µM
IC50 (SW1990; SW1990, pancreas): > 100 µM
SMILES: CSCC[C@H](NC(=O)c1ccc(CNCc2cnc[nH]2)cc1-c1ccccc1C)C(=O)O [FTI-2148]
IC50 (Capan-2; Capan-2, pancreas): > 100 µM
IC50 (HPDE-C7-Kras): > 100 µM
IC50 (HPDE-C7): > 100 µM
IC50 (HPNE-K-ras): > 100 µM
IC50 (HPNE): > 100 µM

IC50 (A549; Homo sapiens): > 100 µM
IC50 (ASPC-1; Homo sapiens, ASPC1, ASPC-1, pancreas): > 100 µM
IC50 (BxPC3; Homo sapiens, BXPC-3, BxPC3, pancreas): > 100 µM
IC50 (DU-145; DU-145, prostate): > 50 µM
IC50 (DU-145; Homo sapiens, DU-145, DU-145, prostate): > 100 µM
IC50 (MCF-7; Homo sapiens, MCF7, MCF-7, breast): > 100 µM
IC50 (MiaPaca; Homo sapiens, MIA PaCa-2, pancreas): > 100 µM
IC50 (Panc-1; Homo sapiens): > 100 µM
IC50 (SW1990; Homo sapiens, SW1990, SW1990, pancreas): > 100 µM
IC50 (NCI-H460): > 100 µM
SMILES: Cc1nc[nH]c1CN1CCN(C(=O)N[C@@H](CC(C)C)C(=O)O)[C@@H](Cc2ccccc2)C1=O [GGTI-2418]
IC50 (Capan-2; Homo sapiens, Capan-2, Capan-2, pancreas): > 100 µM
IC50 (HPDE-C7-Kras; Homo sapiens): > 100 µM
IC50 (HPDE-C7; Homo sapiens): > 100 µM
IC50 (HPNE-K-ras; Homo sapiens): > 100 µM
IC50 (HPNE; Homo sapiens): > 100 µM
inhibition of Rap-1A geranylgeranylation [1]: inhibited selectively
